Tests used:
Type in all cases: in vivo
[1] = system: Seeds of Lettuce R. (Super-Jericho); assay: Filter paper bioassay with lettuce seeds: germination and early plant development, Minimal Effective Concentration (MEC); conditions: lettuce seeds on filter paper, 0 to 1 mmol/l, visually assessed after 6 days
Outline: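 Non-sterilized Super-Jericho lettuce seeds, 10 per dish, on filter paper wetted with aqueous test solution at 0–1 mmol/l. Kept 48 h dark, then 4 days at 6/18 dark/light. MEC is the lowest concentration causing no germination or radicle/shoot malformation by visual scoring at day 6; at least two repeats.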

[2] = system: Seeds of Lettuce R. (Super-Jericho); assay: Filter paper bioassay with lettuce seeds: germination, Fully Effective Concentration (FEC); conditions: lowest concentration mostly preventing lettuce seed germination, assessed after 6 days
From the text: Materials: Seeds of Lettuce R. (Super-Jericho, non-sterilized) were obtained from Ben Shahar Moshe Ltd., 99% purity. The test compounds listed in the Table 2 below were synthetized de novo or purchased from different vendors.
Filter Paper Bioassays with Lettuce seeds: The protocol is following Bertin et al. 2009 and Movellan et al. 2014 with specified modifications as described below.
Seeds were placed on Whatman no. 1 filter paper (Whatman, Middlesex, U.K.) in Petri dishes (10 seeds per plate) with 2.0 ml of aqueous solution of a test material in concentration ranged from 0 (control) to 1 mmol/l were placed in a tray tilted at 45°. The trays were kept in dark for 48 hours and then transferred to the growth chamber with 6/18 dark/light cycle for 4 days. Each experiment was performed at least with two repeats.
The development of plants' radicle and shoots were visually assessed 6 days after the beginning of the test to determine Fully Effective Concentration (FEC) of a test material. In the context of the invention, FED is defined as the lowest concentration level of a test material that mostly preventing seeds germination.

[3] = system: Romaine lettuce (Lactuca sativa L.) plants; assay: Post-emergence herbicidal activity on potted Romaine lettuce plants (soil or foliar application); conditions: lettuce at 2 to 3 leaves, two weeks after treatment
Description: (§1) The tests were performed on Romaine lettuce (Lactuca sativa L.) plants at the stage 2 to 3 leaves. The plants were grown in mini-pots packed with soil, dimensions 2×2×5 cm, one plant per mini-pot. Test compounds were dissolved in 0.1% aqueous solution water solution of Silwet adjuvant to final concentrations ranging from 0 (Control) to 0.0001%. The test compounds were applied on soil (1 ml per pot) or foliar with airbrush (0.1 ml per pot). Each concentration was tested on 20 plants. Two weeks after the treatment the herbicidal effects of the respective test material were visually evaluated (aboveground part and roots. Then the aboveground part of the plants was neatly cut and weighed (wet weight) to assess the growth inhibition caused by the test compound. The growth inhibition (GI) was calculated as following: […]
Where Mt and Mc are median wet weight of treated and control plants, respectively. In the context of the invention, the herbicidal effect was assessed by concentration of the compound causing more than 85% of Growth Inhibition (GI) or irreversible damage of the plants (Table 3). Herbicidal activity of selected DHAAs is summarized in Table 4 (soil application) and Table 5 (Foliar application).

[4] = system: Romaine lettuce (Lactuca sativa L.) plants; assay: Comparison of NAA and DNAA: growth inhibition of potted Romaine lettuce plants; conditions: two weeks after treatment
Description: as §1, with “adjuvant. The test material where applied in rate” for “adjuvant to final concentrations ranging from”, “(Control), 0.01, 0.05, and 0.5 mg/pot.” for “(Control) to 0.0001%.”, “soil” for “soil (1 ml per pot)”
Where Mt and Mc are median wet weight of treated and control plants, respectively.

[5] = foliar application, 0.05 mg/pot
[6] = foliar application, 0.50 mg/pot

Molecule	Score (activity score of Minimal Effective Concentration, MEC) [1]	FEC (Fully Effective Concentration) [2]	Score (test material causing more than 85% of Growth Inhibition or irreversible plant damage) ([3]; foliar application)	Score (test material causing more than 85% of Growth Inhibition or irreversible plant damage) ([3]; soil application)	Herbicidal effect, growth application (%) [4, 5]	Herbicidal effect, growth application (%) [4, 6]	Herbicidal effect, growth application (%) ([4]; soil application, 0.01 mg/pot)	Herbicidal effect, growth application (%) ([4]; soil application, 0.05 mg/pot)	Herbicidal effect, growth application (%) ([4]; soil application, 0.50 mg/pot)
2-(2-bromo-1,3-thiazol-4-yl)-2,2-difluoroacetic acid [compound 5730]	very strong	0.010 mM	strong (0.01 to 0.05)	strong (0.01 to 0.05)					
2-(2-chlorothiophen-3-yl)-2,2-difluoroacetic acid [compound 5623]	Strong (0.01 mM)	1.000 mM	strong (0.01 to 0.05)	strong (0.01 to 0.05)	91%	97%	34%	79%	98%
2-(2-methoxyethoxy)ethyl(2-chloro-1,3-thiazol-4-yl)(difluoro)acetate [compound 5746]	very strong	0.001 mM	strong (0.01 to 0.05)	strong (0.01 to 0.05)					
2-(2-methoxyethoxy)ethyl(2-chloro-1,3-thiazol-4-yl)(difluoro)acetate [compound 5771]	very strong	0.050 mM	strong (0.01 to 0.05)						
2-(4-methylphenyl)-2-oxoethyl(2-chloro-1,3-thiazol-4-yl)(difluoro)acetate [compound 5738]	very strong	0.010 mM	moderate (0.5)	strong (0.01 to 0.05)					
3-(2-chlorothiophen-3-yl)-3,3-difluoro-2-hydroxypropanenitrile [compound 5761]	Strong (0.01 mM)	0.100 mM		strong (0.01 to 0.05)					
NC(Cc1ccsc1Cl)C(=O)O (centres unmarked) [compound 516]					0%	0%	0%	0%	38%
NC(Cc1cc(Cl)sc1Cl)C(=O)O (centres unmarked) [compound 517]					0%	29%	0%	25%	75%
NC(Cc1nc(Cl)sc1Cl)C(=O)O (centres unmarked) [compound 527]					0%	44%	0%	11%	90%
NCCc1cc(Cl)sc1Cl [compound 584, 2-(2,5-dichlorothiophen-3-yl) ethan-1-amine]	moderate	0.500 mM		weak (1.0)					
NC(Cc1ccnc(Br)c1)C(=O)O (centres unmarked) [compound 632]					0%	8%	0%	13%	21%
O=C(OCc1ccccc1)C(F)(F)c1cc(Cl)sc1Cl [compound 5709, benzyl(2,5-dichlorothiophen-3-yl)(difluoro)acetate]	very strong	0.100 mM	moderate (0.5)						
O=C(O)C(F)(F)c1ccsc1C(F)(F)F [compound 5728, difluoro[2-(trifluoromethyl)thiophen-3-yl]acetic acid]	Strong (0.01 mM)	1.000 mM	strong (0.01 to 0.05)	strong (0.01 to 0.05)					
(2-bromophenyl)methyl(2,5-dichlorothiophen-3-yl)(difluoro)acetate [compound 5747]	very strong	0.500 mM	moderate (0.5)	moderate (0.5)					
(2-bromophenyl)methyl(2,5-dichlorothiophen-3-yl)(difluoro)acetate [compound 5772]	Strong (0.01 mM)	0.500 mM	moderate (0.5)	strong (0.01 to 0.05)					
(4-bromophenyl)methyl(2,5-dichlorothiophen-3-yl)(difluoro)acetate [compound 5768]	Strong (0.01 mM)	0.500 mM	strong (0.01 to 0.05)	moderate (0.5)					
(6-bromopyridin-2-yl)methyl2-(2,5-dichlorothiophen-3-yl)-2,2-difluoroacetate [compound 5757]	Strong (0.01 mM)	0.100 mM		strong (0.01 to 0.05)					
(6-bromopyridin-2-yl)methyl(2,5-dichlorothiophen-3-yl)acetate [compound 5759]	very strong	0.010 mM	strong (0.01 to 0.05)	strong (0.01 to 0.05)					
ethyl(2,5-dichloro-1,3-thiazol-4-yl)(difluoro)acetate [compound 5655]	Strong (0.01 mM)	1.000 mM	strong (0.01 to 0.05)	strong (0.01 to 0.05)					
